Experimental data reported in patent US20070287727A1, “Anti-Nicotine Treatment” (priority 2006, published 2007).

Legend:
[1] = tested on: superior cervical ganglia; settings: cited from earlier work
[2] = tested on: heavy smokers; assay: Treatment of heavy smokers using anticholinergic therapy; type: in vivo, human; settings: heavy smokers unable to visit for a booster
Source text: Some individuals were characterized as heavy smokers and smoked 20 or more cigarettes per day. […] All of these patients received normal supportive treatment by sedative drugs and counseling on coping with and adjusting to addiction.
Booster injections were offered to all patients.

[3] = intramuscular or intravenous injection; cited from earlier work
[4] = tested on: monkeys; settings: cited from earlier work

For CN1CCCC1c1cccnc1 (stereo not shown) [nicotine], the acetylcholinesterase ([1]; after withdrawal of nicotine) is listed as “about 117 % of controls” and the acetylcholine increase ([1]; chronic nicotine treatment) is listed as “about 35%”.
For CN1[C@@H]2CC[C@H]1C[C@@H](OC(c1ccccc1)c1ccccc1)C2 [benztropine, 8-azabicyclo [3.2.1]octane, 3-(diphenylmethoxy)-, endo, methanesulfonate], the patient-reported well-being ([2]; a few weeks after treatment) is listed as “feeling well”, the “relapse to smoke again” value ([2]; given during the 5 days after the first injection) is listed as “no immediate or short term relapse” and the onset of action [3] is listed as “within minutes”.
For CN1[C@@H]2C[C@@H](OC(=O)[C@H](CO)c3ccccc3)C[C@H]1[C@@H]1O[C@@H]12 [scopolamine], the “effect on smoking (puffing pattern)” value [4] is listed as “decreased smoking”.
In the case of C[C@H](N)Cc1ccccc1 [d-amphetamine], the “effect on smoking (puffing pattern)” value [4] is listed as “decreased smoking”.
